How the values were obtained:
Assay type in all cases: in vivo
[1] = system: ICR mice; assay: Acetic acid writhing test; parameters: key to Inhibition rate (%): Symbol “—” indicates that the data obtained at this dose was not significantly different from the vehicle control group; settings: 1 mg/kg intragastric, 0.6% acetic acid ip two hours after administration
Procedure: (§1) ICR mice, 18-22 g, half of them being male and the other half being female, provided by the Department of Laboratory Animals, Peking University (License No.: SCXK (Beijing) 2016-0010).
ICR mice, half of them being male and the other half being female, were randomly grouped, 8 mice per group. Vehicle control group (double-distilled water), ibuprofen control group, and groups for samples to be tested (the compounds and doses thereof were shown in Table 2) were set. All drugs were dissolved in double-distilled water before administration, and given by intragastric administration at predetermined doses. Two hours after the administration, the mice were intraperitoneally injected with 0.6% acetic acid solution (10 ml/kg, ip), and the number of times the mice writhed (abdomen depressed, buttock raised, body elongated) was recorded within 5-20 minutes. The inhibition rate % of compound on writhing pain in mice was calculated according to the following formula.
Inhibition rate %=(number of writhing times in vehicle control group−number of writhing times in test group)/number of writhing times in vehicle control group×100

[2] = system: ICR mice; assay: Carrageenan-induced paw swelling in mice; settings: 1 mg/kg i.g.; for 0.5 h inhibition rate (%) / 0.5 h swelling degree (μL): 0.5 h after carrageenan injection; for 0.5 h swelling degree (μL) / 1 h swelling degree (μL) / 2 h swelling degree (μL): mean±SD; for 1 h inhibition rate (%) / 1 h swelling degree (μL): 1 h after carrageenan injection; for 2 h inhibition rate (%) / 2 h swelling degree (μL): 2 h after carrageenan injection
Procedure: ICR mice, body weight 18 g-22 g, half of them being male and the other half being female, provided by the Department of Laboratory Animals, Peking University. The animals were raised in a standard environment: temperature 23±1° C., relative humidity 55±5%, light-dark cycle 12 h/12 h, and fed with standard pellet feed.
The mouse was fixed in a special holder, and both hind feet were exposed. Before the test, a line was drawn at 0.5 cm below the ankle joint of mouse with a marker, and used as a mark for measuring plantar volume. 30 minutes before administration the volume of right hind foot was measured as basic threshold. The mice were randomly divided into 5 groups, 8 mice per group, half of them being male and the other half being female. Vehicle control group (double-distilled water, i.g.), dexamethasone control group (0.5 mg/kg, i.g.), compound DXL-A-22 group (1 mg/kg, i.g.), and DXL-A-24 group (1 mg/kg, i.g.) were set. All drugs were dissolved in double-distilled water before administration, and were administered at 0.1 mL/10 g. Immediately after intragastric administration, 20 μL of 5% carrageenan saline solution was injected subcutaneously in the right hind foot of the mice, and the plantar volumes were measured at time points of 0.5 h, 1 h and 2 h after injection. The difference between the plantar volume of right foot after injection of carrageenan and the plantar volume of right foot before injection was used as swelling degree index (i.e., swelling degree). The swelling degree was calculated according to formula (3). The intensity of anti-inflammatory effect was expressed as inhibition rate (%), and the inhibition rate (%) was calculated according to formula (4).
Swelling degree=plantar volume of right foot after injection−plantar volume of right foot before injection (3)
Inflammation inhibition rate (%)=(plantar swelling degree in vehicle control group−plantar swelling degree in drug administration group)/plantar swelling degree in vehicle control group×100% (4)

[3] = system: ICR mice; assay: Hot plate test; settings: Mus musculus, po; 1 mg/kg intragastric, latency 2.0 hours after administration, hot plate 55° C.; read-out: PTE %
Procedure: as §1
The temperature of hot plate was adjusted to 55° C., and the responses of mouse such as licking hind feet and jumping were used as the observation indexes. The time from the placement of mice on copper plate to the appearance of the above responses was defined as latency time. The latency time was measured for three times 30 minutes before administration, and the average value thereof was used as basic threshold, or baseline latency (BL). The animals with a latency time greater than 15 s and less than 5 s were removed, and the residual mice were randomly grouped, 8 animals per group.
Vehicle control group (double-distilled water) and groups for samples to be tested (the compounds and doses thereof were shown in Table 1) were set. All drugs were dissolved in […] before administration, and given by intragastric administration. The latency time was measured 2.0 hours after administration. Percentage of Pain Threshold Elevated Rate (PTE %) of compound on mice was calculated according to the following formula:
PTE %=(latency time of test group−latency time of vehicle control group)/latency time of vehicle control group×100

[4] = system: ICR mice; assay: Xylene-induced mouse ear swelling test (Effect Example 4); settings: Mus musculus, po, 2 h; 1 mg/kg intragastric, 50 uL xylene two hours after administration; read-out: Inhibition rate (%)
Procedure: as §1
ICR mice were randomly grouped, 8 mice per group, half of them being male and the other half being female. Vehicle control group (double-distilled water) and groups for samples to be tested (the compounds and doses thereof were shown in Table 4). All drugs were dissolved in double-distilled water immediately before administration, and given by intragastric administration at predetermined doses. Two hours after administration, 50 uL of xylene was smeared evenly on the inner and outer sides of right ear of mouse. After 30 minutes, the left and right ears of mouse were cut, and circular ear pieces of the same size were punched at the same position on the left and right ears, and weighed. The ear swelling inhibition rate of compound in mice was calculated according to the formula.
Inhibition rate %=(degree of ear swelling in vehicle control group−degree of ear swelling in test group)/degree of ear swelling in vehicle control group×100

Structure (SMILES) | Inhibition rate (%) [1] | 0.5 h inhibition rate (%) [2] [%] | 0.5 h swelling degree (μL) [2] | 1 h inhibition rate (%) [2] [%] | 1 h swelling degree (μL) [2] | 2 h inhibition rate (%) [2] [%] | 2 h swelling degree (μL) [2] | change in vivo at 1 mg/kg [3] [%] | inhibition in vivo at 1 mg/kg [4] [%]
Br.Brc1ccc(N2CC[N+]3(CCCC3)CC2)cc1 [DXL-A-22, 8-(4-bromophenyl)-5,8-diazaspiro[4.5]decan-5-ium bromide] | — | 50.07 | 42.63 ± 16.98**/ μL | 55.56 | 38.50 ± 11.40**/ μL | 65.36 | 38.63 ± 11.67**/ μL | 52.6 | 47
FC(F)(F)c1ccc(N2CC[N+]3(CCCC3)CC2)cc1.[Br-] [DXL-A-24, 8-(4-(trifluoromethyl)phenyl)-5,8-diazaspiro[4.5]decan-5-ium bromide] | — | 52.27 | 40.75 ± 13.34**/ μL | 57.72 | 36.63 ± 16.12**/ μL | 67.49 | 36.25 ± 9.60**/ μL | 48.6 | 53.4
